Measurements taken from PubChem BioAssay (NCI).
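Grown in 96-well plates, cells were treated for 48 hours with each compound at five concentrations. Insufficient inhibition: endpoint recorded as highest concentration tested. TGI: total growth inhibition.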

Assays:
Assay in all cases: NCI tumour cell line growth inhibition, 48 h
SK-MEL-28 melanoma = test system: SK-MEL-28 melanoma
UACC-62 melanoma = test system: UACC-62 melanoma
SNB-19 CNS = test system: SNB-19 CNS
U251 CNS = test system: U251 CNS
HCT-15 colon = test system: HCT-15 colon
CCRF-CEM leukemia = test system: CCRF-CEM leukemia
UACC-257 melanoma = test system: UACC-257 melanoma
SR leukemia = test system: SR leukemia
HOP-92 NSCLC = test system: HOP-92 NSCLC
TK-10 renal = test system: TK-10 renal
NCI-H460 lung = test system: NCI-H460 lung
SF-539 CNS = test system: SF-539 CNS
COLO 205 colon = test system: COLO 205 colon
M14 melanoma = test system: M14 melanoma
MALME-3M melanoma = test system: MALME-3M melanoma

Compound | TGI (SK-MEL-28 melanoma) [µM] | TGI (UACC-62 melanoma) [µM] | TGI (SNB-19 CNS) [µM] | TGI (U251 CNS) [µM] | TGI (HCT-15 colon) [µM] | TGI (CCRF-CEM leukemia) [µM] | TGI (UACC-257 melanoma) [µM] | TGI (SR leukemia) [µM] | TGI (HOP-92 NSCLC) [µM] | TGI (TK-10 renal) [µM] | TGI (NCI-H460 lung) [µM] | TGI (SF-539 CNS) [µM] | TGI (COLO 205 colon) [µM] | TGI (M14 melanoma) [µM] | TGI (MALME-3M melanoma) [µM]
NS(=O)(=O)c1ccc(NC(=S)/N=C/c2c(O)c3ccccc3[nH]c2=O)cc1 | > 100 | > 100 | > 100 | > 100 | > 100 | > 100 | > 100 | > 100 | > 100 | > 100 | > 100 | > 100 | > 100 | > 100 | 
CN(C(=O)C12C3C4C1C1C2C3C41C(=O)O)C(C)(C)C (stereo unspecified) | > 100 | > 100 | > 100 | > 100 | > 100 | > 100 | > 100 | > 100 | > 100 | > 100 | > 100 | > 100 | > 100 | > 100 | 
COc1ccc(-c2c(C#N)c(N)n(C3OCC(O)C(O)C3O)c(=S)c2C#N)cc1 (stereo unspecified) | > 100 | > 100 | > 100 |  | > 100 | > 100 |  | > 100 |  | > 100 | > 100 | > 100 |  | > 100 | > 100
Nc1ccc2c(c1)N(C(=O)CCCC(=O)N1CC(CCl)c3ccc(N)cc31)CC2CCl (stereo unspecified) | > 14.4 |  | 11.3 | > 26.2 | > 14.6 | > 20.1 | > 50 |  | > 50 | > 48.1 | > 50 | 11.3 | 2.1 | 4.7 | 0.451
CN(OC(=O)CC(=O)c1ccccc1)C(=O)Cc1ccccc1 |  | > 100 | > 100 | > 100 | > 100 | > 100 | > 100 | > 100 |  | > 100 | > 100 | > 100 | > 100 | > 100 | > 100
C=C[C@@]1(C)CC(=O)[C@]2(O)[C@@]3(C)[C@@H](OC(C)=O)CCC(C)(C)[C@@H]3[C@H](O)[C@H](OC(C)=O)[C@@]2(C)O1 | > 100 | > 100 | > 100 | > 100 | > 100 |  | > 100 | > 100 | > 100 |  | > 100 | > 100 |  | > 100 | 
N#Cc1cccc(Nc2ccccc2SSc2ccccc2Nc2cccc(C#N)c2)c1 | > 21.5 | > 21.5 | 19.5 | 12 | > 21.5 | 14.9 | > 21.5 |  | 19 | > 21.5 | 12.8 | 17.4 |  | 18.6 | 15.8
CC(C)OP(=O)(OC(C)C)c1nn(-c2ccc([N+](=O)[O-])cc2)c(=N)s1 | > 100 | > 100 | > 100 | > 100 | > 100 | > 100 | > 100 |  | > 100 | > 100 | > 100 | > 100 | > 100 | > 100 | > 100
CN(C)c1ccc(/C=C(\NC(=O)c2ccccc2)c2nc3ccccc3c(=O)o2)cc1 | > 100 | > 100 | > 100 | > 100 | > 100 | > 100 | > 100 |  | > 100 | > 100 | > 100 | > 100 | > 100 | > 100 | > 100
COc1ccc(OC)c2sc(N3C(=O)/C(=C/c4ccc(N(C)C)cc4)N=C3c3ccccc3)nc12 | > 100 | > 100 | > 100 | > 100 | > 100 | 24.5 | > 100 | 74.6 | > 100 | > 100 | > 100 | > 100 | > 100 | > 100 | 
Cc1c2[nH]c3ccc(Br)cc3c2c(C)c2[nH]ccc(=O)c12 | 34.8 |  | 33.2 |  | 30.4 | 31.6 | 34.9 | 37.9 |  | 26.9 | 23.1 | 32 | 27.1 | 30.9 | 28
O=[N+]([O-])/C(C(Cl)=C(Cl)Cl)=C(\Nc1cccc2cccnc12)Sc1ccccc1 | 36 | 88.4 | > 100 | 54.2 | 34.4 | > 100 | 55.7 |  |  |  | > 100 | 40.4 | 31.6 | > 100 | 64.9
O=c1[nH]nc(Cc2ccccc2)n1N=C1CCCCC1 | > 100 | > 100 | > 100 | > 100 | > 100 | > 100 | > 100 |  | > 100 | > 100 | > 100 |  | > 100 | > 100 | > 100
C=CCN1C(=O)/C(=C/c2ccccc2)N=C1SC/C=C/C | > 100 | > 100 | > 100 | > 100 | > 100 | > 100 | 74.5 | 23.3 | 55.5 | > 100 | > 100 | > 100 | > 100 | > 100 | 
CCCCn1c(C)c(C)c2c1NN=C(C#N)S2(=O)=O | > 100 | > 100 | > 100 | > 100 | > 100 |  | > 100 | > 100 |  | > 100 | > 100 | > 100 | > 100 | > 100 | > 100
O=C1c2scc(-c3ccc(F)cc3)c2-n2cccc21 | > 100 | > 100 | > 100 | 51.9 | > 100 | > 100 | > 100 | 44 |  | > 100 | > 100 |  | > 100 | > 100 | > 100
[N-]=[N+]=NC1(c2ccccc2)C(=O)c2cccc3c4ccccc4n(c23)C1=O (stereo unspecified) | > 100 | > 100 | > 100 | > 100 | > 100 | > 100 | > 100 |  |  | > 100 | > 100 | > 100 | 38.7 | > 100 | > 100

Compound | TGI (SK-MEL-28 melanoma) [µM] | TGI (UACC-62 melanoma) [µM] | TGI (SNB-19 CNS) [µM] | TGI (U251 CNS) [µM] | TGI (HCT-15 colon) [µM] | TGI (CCRF-CEM leukemia) [µM] | TGI (UACC-257 melanoma) [µM] | TGI (SR leukemia) [µM] | TGI (HOP-92 NSCLC) [µM] | TGI (TK-10 renal) [µM] | TGI (NCI-H460 lung) [µM] | TGI (SF-539 CNS) [µM] | TGI (COLO 205 colon) [µM] | TGI (M14 melanoma) [µM] | TGI (MALME-3M melanoma) [µM]
COC1C(=[N+]=[N-])C(=O)NC(=O)N1C1OC(COC(c2ccccc2)(c2ccccc2)c2ccccc2)C(O)C1O (stereo unspecified) | 31.2 | 30.5 | 34 | 35.5 | 36.8 | 41.6 |  |  |  |  | 60.6 | 35.6 | 38 | 34.6 | 33.8
O=S(=O)(O)c1cc(S(=O)(=O)O)c2c(N=Nc3ccccc3)c(O)ccc2c1 | > 100 | > 100 | > 100 | > 100 | > 100 | > 100 | > 100 |  | > 100 | > 100 |  |  | > 100 | > 100 | 
CCCOP1(=O)C=C(C)C(Cl)=C(C)C1 (stereo unspecified) | 43.5 | 32.4 | > 100 | 59.3 | 58.4 | 59.3 | 45.7 | 61.8 | 48.6 | 63.9 | > 100 | 63.8 | 24.4 | 32.5 | 
C(=C\c1ccccc1)/Cn1nc(-c2ccccc2)nc1-c1cnccn1 | > 100 | > 100 | > 100 | > 100 | > 100 | > 100 | > 100 | > 100 | > 100 | > 100 | > 100 | > 100 | > 100 | > 100 | 
COC1/C=C/C(C)C(C(C)C(OC)C(C)CCC(=O)C(C)C(CC(=O)O)OC)OC(=O)/C=C/C=C(\C)CC(OC)C(OC)C2=CC(=O)O[C@@H](C(C)C(OC)CC(OC)/C=C/C(C)C(O)C1)[C@H]2O (stereo partly specified) | 0.267 | > 1.07 | > 1.07 | > 1.07 | 0.926 | > 1.07 | > 1.07 | > 1.07 | 0.0917 | 0.306 | > 1.07 |  | > 1.07 | 0.0739 | 
COc1ccccc1-c1n[nH]c(-c2ccccc2O)n1 | > 100 | > 100 | > 100 | > 100 | > 100 | > 100 | > 100 |  | > 100 | > 100 | > 100 | > 100 | > 100 | > 100 | 
O=C1CCCSCCCC(=O)CCCSCCC1 | > 100 | > 100 | > 100 | > 100 | > 100 | > 100 | > 100 | > 100 | > 100 | > 100 | > 100 | > 100 | > 100 | > 100 | 
COC(=O)C1=C(C(=O)OC)C2(c3ccccc3)c3ccccc3C(=O)C1N2C1CCCCC1 (stereo unspecified) | > 100 | > 100 | > 100 | > 100 | > 100 | > 100 | > 100 |  | > 100 | > 100 | > 100 | > 100 | 32.8 | > 100 | > 100
COc1nc(N)nc2c1n(C)c[n+]2C | > 100 | > 100 | > 100 | > 100 | > 100 | > 100 | > 100 |  | > 100 | > 100 | > 100 | > 100 | > 100 | > 100 | > 100
CCCCC1=C(C(=O)N2CCOCC2)C2(OCCO2)C1Cl (stereo unspecified) | 53.6 | > 100 | > 100 | > 100 | > 100 | > 100 | 60.9 |  | > 100 | > 100 |  | 37.8 | 54.3 | 33.9 | > 100
CN1NC2=NCCN=C3NN(C)C(=NCCN=C1S2)S3 | > 100 | > 100 | > 100 | > 100 | > 100 | > 100 | > 100 | > 100 | > 100 |  | > 100 | > 100 | > 100 | > 100 | 
CNc1nc2c(C)ccc3nc(N(C)C)nc-3c2n1C | > 10 |  | > 10 | > 10 | > 10 | > 10 | > 10 |  | > 10 | > 10 | > 10 | > 10 | > 10 | > 10 | > 10
CC1CC/C(=C\c2ccc(Cl)cc2)C(=O)/C1=C\c1ccc(Cl)cc1 (stereo unspecified) | > 100 | 57.3 |  | > 100 | 50.4 | > 100 | > 100 |  | > 100 | 79.8 |  |  | 73 | 48.8 | 
O=S(=O)(O)c1cccc2ccc(O)c(N=Nc3ccc(S(=O)(=O)c4ccc(N=Nc5c(O)ccc6cccc(S(=O)(=O)O)c56)cc4)cc3)c12 | > 100 | > 100 | > 100 | > 100 | > 100 | > 100 | > 100 |  | > 100 | > 100 |  |  | > 100 | > 100 | > 100
COC1=C(OC)C(=O)c2cc(SC)c(=O)c(SC)cc2C1=O | 26.7 | 4.45 | 60.7 | 38.7 | > 100 | 4.93 | 21.6 | 22.7 | 48.4 | > 100 | > 100 | 24.8 | > 100 | 32.6 | 
COc1ccc2c(c1)nc1n2C(c2c(F)cccc2F)SC1 (stereo unspecified) | > 100 | > 100 | > 100 | > 100 | > 100 | > 100 | > 100 | > 100 | > 100 | > 100 | > 100 | > 100 | > 100 | > 100 | 
CC(C)C(=O)CC(Sc1ccc(N)cc1)c1ccccc1 (stereo unspecified) | > 100 | 72.1 | > 100 | 32.9 | > 100 | 70.7 | > 100 |  |  | > 100 | 74.9 | 63.5 | > 100 | > 100 | > 100
